Measured values published in patent publication US20180291325A1, “IN VITRO PHARMACOKINETIC-PHARMACODYNAMIC DEVICE” (Merck Sharp & Dohme Corp., priority 2015, published 2018).

How the values were obtained:
Type in all cases: cell-based
[1] = test system: HCV genotype 1B (5-2) replicon cell line; assay: BelloCell in vitro PK-PD PK driver experiments; conditions: adjusted to free fraction, Day 3
From the text: A 4-tube HulaCell system was validated by comparing the results for the Compound PK driver experiments, previously performed in the BelloCell® (data not shown), with the results obtained from dose escalation and dose fractionation studies performed using the HulaCell system.
Calculated PK Driver parameters from HulaCell experiments, compared to those determined in BelloCell experiments are shown in Table 1.
The Hula Cell was successfully used to determine the Maximum efficacy threshold values at Day 3 for Compound in the HCV genotype 1B (5-2) replicon cell line. The PK correlation curves were remarkably similar between the BelloCell® and Hula cell with the only noticeable differences being the prediction of the % T>EC50 and the AUC.

[2] = test system: HCV genotype 1B containing 5-2 cells; assay: plate-based RNA content assay; conditions: Hepatitis C virus; HCV genotype 1B 5-2 cells, plate-based RNA content assay (data not shown)
Procedure: The EC50 of Compound against HCV genotype 1B containing 5-2 cells was determined to be 0.7 nM in plate-based RNA content assays (data not shown). A dose escalation experiment in which HCV genotype 1B 5-2 cells were dosed QD over three days at 0.3×EC50, 1×EC50, 3×EC50 and 10×EC50 and a dose fractionation experiment in which cells were dosed QD, BID or TID to obtain a constant AUC of ˜16.8 nM were performed using the HulaCell system. Results of the reporter assays for the dose escalation experiment are shown in FIGS. 6A-B. The combined PK results of the dose escalation experiment area shown in FIG. 7.

[3] = test system: HCV genotype 1B (5-2) replicon cell line; assay: HulaCell in vitro PK-PD PK driver experiments (dose escalation and dose fractionation; luciferase reporter and RT-PCR viral RNA); conditions: adjusted to free fraction, Day 3
Procedure: Three QD infusions of the HCV NS3/4 protease inhibitor, (1aR,5S,8S,10R,22aR)-N-[(1R,2S)-1-[(Cyclopropylsulfonamido)carbonyl]-2-ethenylcyclopropyl]-14-methoxy-5-(2-methylpropan-2-yl)-3,6-dioxo-1,1a,3,4,5,6,9,10,18,19,20,21,22,22a-tetradecahydro-8H-7,10-methanocyclopropa[18,19][1,10,3,6]dioxadiazacyclononadecino[11,12-b]quinoxaline-8-carboxamide (“Compound”; See U.S. Pat. No. 7,973,040) were tested in the Hula Cell using the in vitro PK-PD software program and PK was monitored by collecting samples at multiple time point during each infusion. In addition, microcarrier beads were also collected daily to measure changes in viral load by RT-PCR Taqman analysis of cell lysates.
A frozen vial of HCV genotype 1B replicon cells (5-2 cells which contain genotype 1B replicon and a Luciferase reporter) was thawed and seeded into one T-75 flask. At confluency, the flask was trypsinized and cells resuspended to 6×10^6 cells in 9.5 ml DMEM containing 10% FBS and 0.5 mg/ml G418 in a 50 ml LeviTube™. 0.5 ml of collagen-coated microcarrier bead slurry mixture (50% V/V) was added to the 9.5 ml of cells and attachment was performed using BioWiggler™ microcarrier loading program (RPM=60; 1 min mixing; 40 min settle (repeat 6x=4 hr total)). Continuous mixing at 60 rpm was performed overnight. The next morning, 30 ml of fresh media was added to the culture. The microcarriers and attached cells were allowed to settle before removing 30 ml of media with any unattached cells from the LeviTube™. Afterward, 30 ml of fresh media was added back to the LeviTube™ to make the final volume 40 ml. […]
PK/PD samples were collected on Day 0, Day 1, Day 2, and Day 3 directly from the 50 ml LeviTube™ at specified time points. […] Compound concentration in the PK samples was determined by Mass Spectroscopy analysis.
Samples for PD determination (viral load content by RT-PCR) were washed once with 1 ml PBS (w/out Mg^2+ and Ca^2+). […] Viral RNA content of the cells was determined by quantitative PCR. […]

In the case of C=C[C@@H]1C[C@]1(NC(=O)[C@@H]1C[C@@H]2CN1C(=O)[C@H](C(C)(C)C)NC(=O)O[C@@H]1C[C@H]1CCCCCc1nc3ccc(OC)cc3nc1O2)C(=O)NS(=O)(=O)C1CC1 [Compound, (1aR,5S,8S,10R,22aR)-N-[(1R,2S)-1-[(Cyclopropylsulfonamido)carbonyl]-2-ethenylcyclopropyl]-14-methoxy-5-(2-methylpropan-2-yl)-3,6-dioxo-1,1a,3,4,5,6,9,10,18,19,20,21,22,22a-tetradecahydro-8H-7,10-methanocyclopropa[18,19][1,10,3,6]dioxadiazacyclononadecino[11,12-b]quinoxaline-8-carboxamide], the “Maximum Efficacy Threshold % T > EC50” value [1] is reported as ≥50%, the “Maximum Efficacy Threshold AUC0-24” value [1] is reported as ≥8.4 nM·h and the “Maximum Efficacy Threshold Cmin” value [1] is reported as ≥0.11 nM. The EC50 [2] was 0.7 nM, the “Maximum Efficacy Threshold % T > EC50” value [3] was ≥84% and the “Maximum Efficacy Threshold AUC0-24” value [3] was ≥23.7 nM·h. For the same compound, the “Maximum Efficacy Threshold Cmin” value [3] was ≥0.10 nM.
